Consider 1 compound from patent US20200352947A1, “USE OF SEROTONERGIC DRUGS TO TREAT VIRUS-INDUCED THROMBOCYTOPENIA” (NATIONAL UNIVERSITY OF SINGAPORE, priority 2017, published 2020).

One assay relates to DENV2-infected mice. The assay is described as follows: Platelet counts (thrombocytopenia) in DENV2-infected WT mice. The format is in vivo. To be noted: 10^6 pfu DENV2 IP, 24 hours post-infection, n=5. How it is done: Platelet counts of DENV2 infected mice. Mice were infected via intraperitoneal route (IP) with 10^6 plaque forming units (pfu) and were given either vehicle (1% DMSO) or ketanserin 8 mg/kg IP. Blood was taken via cheek bleed 24 hours post-infection and platelet counts were measured using an automated hematology analyzer. DENV2 infection induces thrombocytopenia, but ketanserin treatment is able to prevent thrombocytopenia (n=5). Mean values are presented and error bars represent the SEM. P values were determined by Student's unpaired t test; ***P<0.001, ****P<0.0001.
Platelet counts of DENV2 infected mice. Mice were infected IP with 10^6 pfu of DENV2 and were given either vehicle, the 5HT1A antagonist WAY-100135, or either of the 5HT2A antagonists, ketanserin and sarpogrelate. Blood was taken via cheek bleed 24 hours post-infection and platelet counts were measured using an automated hematology analyzer. DENV2 infection induced thrombocytopenia that was able to be prevented through administration of serotonin receptor antagonists (n=5). Mean values are presented and error bars represent the SEM. P values were determined by one-way ANOVA; ***p<0.001, ****P<0.0001.
WT mice were infected via intraperitoneal route (IP) with 10^6 plaque forming units (pfu) of DENV2 and were given either vehicle (1% DMSO) or ketanserin (8 mg/kg) IP. Blood was taken via cheek bleed 24 hours post-infection and platelet counts were measured using an automated hematology analyzer.
One limitation of the experimental protocol in Examples 10 and 11 is that the vehicle used to deliver ketanserin in mice, DMSO, can itself interfere with platelet aggregation [Rosenblum, W. I. & El-Sabban. F. Stroke 13, 35-39 (1982)]. This difference can be observed by comparing the severity of thrombocytopenia in dengue-infected mice between FIGS. 1 and 10. Accordingly, newer serotonin receptor antagonists that are more soluble in saline were tested, to determine whether a similar effect is seen even without the confounding effects of DMSO. Mice were infected IP with 10^6 pfu of DENV2 and were given either vehicle, the 5HT1A antagonist WAY-100135 (3 mg/kg), or one of the 5HT2A antagonists ketanserin (8 mg/kg) or sarpogrelate (3 mg/kg). Blood was taken via cheek bleed 24 hours post-infection and platelet counts were measured using an automated hematology analyzer.

A further assay concerns DENV2. The assay is described as follows: DENV viral load by qRT-PCR in WT mice. The class given is in vivo. How it is done:
(A) WT mice were treated with vehicle or ketanserin (8 mg/kg) prior to subcutaneous footpad injection with 2×10^5 pfu of DENV or PBS. At 72 h post-infection, popliteal lymph nodes were isolated for viral quantification by qRT-PCR. […] (B-C) WT mice were infected with DENV2 (1×10^6 pfu, i.p.) and treated daily with either 8 mg/kg of ketanserin or vehicle. […] (C) At 1 day post-infection, the spleen was harvested and DENV2 was quantified by qRT-PCR.
Since a concern with inhibition of host factors would be the effect on viral replication, the levels of viremia following DENV infection were measured. WT mice were treated with either ketanserin or vehicle prior to a subcutaneous footpad injection. The draining lymph nodes were then harvested to determine if targeting 5HT2A receptors had any influence on viral load. […] Subsequently it was determined whether targeting serotonin would have an effect on viral load in systemic infection. WT mice were treated with either ketanserin or vehicle following DENV systemic infection via intraperitoneal injection. Serum was isolated at days 1 and 3 post-infection and viremia quantified. […] The second model of severe DENV infection, the IFN-α,β, γ-R^−/− (IFNR-KO) mice, were subsequently infected and treated with either ketanserin or vehicle. These mice are known to have higher levels of viremia than WT mice.

Another assay deals with JEV-infected mice. The assay is described as follows: Platelet counts in JEV-infected mice. The format is in vivo. To be noted: 10^6 pfu JEV IP, ketanserin 8 mg/kg at 1 hour post-infection, 24 hours, n=5. How it is done: Platelet counts of JEV infected mice. Mice were infected with 10^6 pfu of JEV intraperitoneally and were vehicle- or ketanserin-treated (8 mg/kg) at 1 hour post-infection. At 24 hours, blood was collected and platelet counts were measured. The drop in platelet counts induced by JEV was prevented by ketanserin treatment (n=5). Mean values are presented and error bars represent the SEM. P values were determined by Student's unpaired t test; *p<0.05.
Japanese encephalitis virus (JEV) is a flavivirus related to dengue, so the ability of ketanserin to inhibit JEV-induced thrombocytopenia was also tested. Mice were infected with 10^6 pfu of JEV IP, and were treated at 1 hour post-infection with vehicle (1% DMSO) or ketanserin (8 mg/kg). At 24 hours, blood was collected and platelet counts were measured. The reduction in platelet counts induced by JEV was inhibited by ketanserin treatment (FIG. 14).

The subject of a further assay is human platelets. The assay is described as follows: Platelet activation (CD41/CD62P flow cytometry) in stimulated human whole blood. To be noted: ketanserin 100 nM or 500 nM, 15 min; n=4. The format is cell-based. How it is done:
(A) Whole blood from healthy human volunteers was isolated and stimulated with DENV2, serotonin, or DENV2+serotonin for 15 min. Cells were then fixed and stained for platelet markers CD41 and CD62P and analyzed by flow cytometry. DENV raised the activation levels of platelets. […] (B) Human whole blood was stimulated with DENV2, mast cells (MCs) or DENV2+MCs in the presence of vehicle or ketanserin (100 nM or 500 nM) for 15 min prior to assessment of platelet activation. […] Mean values are presented and error bars represent the SEM. P values were determined by one-way ANOVA; *P<0.05, ** P<0.01, ***P<0.001, ****P<0.0001, ns: non-significant.
Additionally, products from DENV-stimulated human mast cells promoted platelet activation, dependent on platelet 5HT2A receptor, since this effect was abolished by ketanserin (FIG. 9B). […] Furthermore, ketanserin is effective in reversing DENV-induced human platelet activation.
(In flow cytometry, cells or beads pass a laser one at a time.)

With `O=C(c1ccc(F)cc1)C1CCN(CCn2c(=O)[nH]c3ccccc3c2=O)CC1` [ketanserin, 3-[2-[4-(4-fluorobenzoyl)piperidin-1-yl]ethyl]-1H-quinazoline-2,4-dione], the “platelet counts (DENV2-induced thrombocytopenia)” value with DENV2-infected mice (WT mice, ketanserin 8 mg/kg IP, vehicle 1% DMSO) was “did not show significantly reduced platelets compared to control”; in the assay on DENV2-infected mice (mice, WAY-100135 3 mg/kg, ketanserin 8 mg/kg or sarpogrelate 3 mg/kg) it was “prevented”. Besides, the “viral load in the spleen” value in the assay on DENV2 (DENV2 1×10^6 pfu i.p., ketanserin 8 mg/kg daily, 1 day post-infection) is “did not affect viral load in the spleen”. For the same compound, the “serum viremia (DENV genome copy numbers)” value with DENV2 (DENV2 1×10^6 pfu i.p., ketanserin 8 mg/kg daily, days 1 and 3 post-infection, n=5) was “no significant difference in serum DENV genome copy numbers at both time points”. For the same compound, in the assay on DENV2 (ketanserin 8 mg/kg prior to subcutaneous footpad injection of 2×10^5 pfu DENV, 72 h post-infection), the “viral load in the draining (popliteal) lymph node” value is “did not affect viral load in the draining lymph node”. Besides, the “reduction in platelet counts induced by JEV” value in the assay on JEV-infected mice is “inhibited”. Moreover, the “platelet activation in human whole blood stimulated with DENV2+mast cells” value in the assay with human platelets is given as “abolished the significant increase in platelet activation”.
